In patent US6127519A, “Calcitonin derivatives” (Tsumura & Co., priority 1990, dated 2000):
Ends that are not written are not given here.

System: calcium concentration in the serum
Experiment: Test 1: reduction of calcium level in serum after tail vein administration to rats
Type: in vivo, rats of the Wistar strain
Settings: 1 ml/kg tail vein, female Wistar rats
Method in brief: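 Female Wistar rats, six weeks old, were assigned in groups of 4 and given the test peptides through the tail vein at 1 ml/kg. The peptides were dissolved in 1% aqueous sodium acetate (pH 4,0) containing 0.1% BSA. Blood (0.3 ml) was drawn from the neck vein immediately before dosing and at set times afterward. Serum was separated by centrifuging at 3500 rpm for 20 minutes. Calcium was measured on a TBA-380 analyzer with a Wako o-cpc kit, and the percentage reduction in serum calcium was calculated.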

[1] = concentration 166 ng/ml, 0 hour (just before administration)
[2] = concentration 166 ng/ml, 1 hour
[3] = concentration 166 ng/ml, 2 hours
[4] = concentration 166 ng/ml, 4 hours
[5] = concentration 166 ng/ml, 6 hours
[6] = concentration 83 ng/ml, 0 hour (just before administration)
[7] = concentration 83 ng/ml, 2 hours
[8] = concentration 83 ng/ml, 4 hours
[9] = concentration 83 ng/ml, 6 hours
[10] = concentration 830 ng/ml, 0 hour (just before administration)
[11] = concentration 830 ng/ml, 1 hour
[12] = concentration 830 ng/ml, 2 hours
[13] = concentration 830 ng/ml, 4 hours
[14] = concentration 830 ng/ml, 6 hours

Row | Substance | Serum calcium level as percent of pre-dose baseline [1] [%] | Serum calcium level as percent of pre-dose baseline [2] [%] | Serum calcium level as percent of pre-dose baseline [3] [%] | Serum calcium level as percent of pre-dose baseline [4] [%] | Serum calcium level as percent of pre-dose baseline [5] [%] | Serum calcium level as percent of pre-dose baseline [6] [%] | Serum calcium level as percent of pre-dose baseline (concentration 83 ng/ml, 1 hour) [%] | Serum calcium level as percent of pre-dose baseline [7] [%] | Serum calcium level as percent of pre-dose baseline [8] [%] | Serum calcium level as percent of pre-dose baseline [9] [%] | Serum calcium level as percent of pre-dose baseline [10] [%] | Serum calcium level as percent of pre-dose baseline [11] [%] | Serum calcium level as percent of pre-dose baseline [12] [%] | Serum calcium level as percent of pre-dose baseline [13] [%] | Serum calcium level as percent of pre-dose baseline [14] [%]
1 | AGNLSTAMLGKLSQELHKLQTYPQTAIGVGAP-NH2 [Peptide No. 14] | 100.0 | 76.0 | 70.0 | 74.3 | 73.7 |  |  |  |  |  |  |  |  |  | 
2 | AGNLSTAMLGKLSQELHKLYPQTAIGVGAP-NH2 [Peptide No. 16] | 100.0 | 80.0 | 86.5 | 84.8 | 85.7 |  |  |  |  |  |  |  |  |  | 
3 | AGNLSTAMLGKLSQELHKQTYPQTAIGVGAP-NH2 [Peptide No. 15] | 100.0 | 75.5 | 67.5 | 80.6 | 75.3 |  |  |  |  |  |  |  |  |  | 
4 | Peptide No. 20: novel linear calcitonin-derivative peptide, Ala at 1 and 7, Leu8, SEQ ID NO:20 (AGNLTSALLGKLSQELHKLQTYPQTAIGVGAP; ends and bridges not checked) |  |  |  |  |  | 100.0 | 86.6 | 88.4 | 83.9 | 87.5 | 100.0 | 80.6 | 87.8 | 82.9 | 84.5
5 | Peptide No. 21: novel calcitonin-derivative peptide, aminosuberic acid (carba) ring, Met8, SEQ ID NO:21 (XGNLSTAMLGKLSQELHKLQTYPQTAIGVGAP; aminosuberic acid carba ring) |  |  |  |  |  | 100.0 | 78.4 | 71.7 | 62.6 | 67.1 | 100.0 | 78.4 | 71.7 | 62.6 | 67.1
6 | Peptide No. 22: novel calcitonin-derivative peptide, aminosuberic acid (carba) ring, Leu8, SEQ ID NO:22 (XGNLSTALLGKLSQELHKLQTYPQTAIGVGAP; aminosuberic acid carba ring) |  |  |  |  |  | 100.0 | 76.1 | 70.7 | 70.7 | 75.9 | 100.0 | 77.2 | 70.7 | 55.8 | 48.5
